Laboratory results published in the NIST ThermoML archive (doi:10.1021/je101139k).
Numbers after ± are expanded uncertainties.

Columns and labels:
[1] = Molar enthalpy of transition or fusion; details: Crystal; DSC
[2] = Crystal; DTA
[3] = molar heat capacity at constant pressure; details: 101.33 kPa, Small sample (50 mg) DSC

[Br-].[Br-].[Br-].[Pr+3] [praseodymium(III) bromide]
Details | Molar enthalpy of transition or fusion [kcal/mol] | Normal melting temperature [°C]
[1] | 11.1 ± 0.359 | –
[2] | – | 687 ± 1

molar heat capacity at constant pressure [J/K/mol], [3]
Details | Crystal | Liquid
298.15 K | 105.37 ± 7.6 | –
300 K | 105.39 ± 7.6 | –
331 K | 105.87 ± 7.6 | –
400 K | 106.93 ± 7.7 | –
500 K | 108.46 ± 7.8 | –
600 K | 109.99 ± 7.9 | –
700 K | 111.52 ± 8 | –
800 K | 113.05 ± 8.1 | –
900 K | 114.58 ± 8.2 | –
960 K | 115.5 ± 8.3 | 141.39 ± 10
1000 K | – | 141.39 ± 10
1065 K | – | 141.39 ± 10
1100 K | – | 141.39 ± 10
1191 K | – | 141.39 ± 10
1200 K | – | 141.39 ± 10
1300 K | – | 141.39 ± 10
